Experimental data: ChEMBL document CHEMBL5442219

What was measured:
Details in all cases: Compound concentration 10 µM
[1] = target: T1, Alpha-1A adrenergic receptor (Homo sapiens) (UniProt P35348)
T1 sequence (whole entry): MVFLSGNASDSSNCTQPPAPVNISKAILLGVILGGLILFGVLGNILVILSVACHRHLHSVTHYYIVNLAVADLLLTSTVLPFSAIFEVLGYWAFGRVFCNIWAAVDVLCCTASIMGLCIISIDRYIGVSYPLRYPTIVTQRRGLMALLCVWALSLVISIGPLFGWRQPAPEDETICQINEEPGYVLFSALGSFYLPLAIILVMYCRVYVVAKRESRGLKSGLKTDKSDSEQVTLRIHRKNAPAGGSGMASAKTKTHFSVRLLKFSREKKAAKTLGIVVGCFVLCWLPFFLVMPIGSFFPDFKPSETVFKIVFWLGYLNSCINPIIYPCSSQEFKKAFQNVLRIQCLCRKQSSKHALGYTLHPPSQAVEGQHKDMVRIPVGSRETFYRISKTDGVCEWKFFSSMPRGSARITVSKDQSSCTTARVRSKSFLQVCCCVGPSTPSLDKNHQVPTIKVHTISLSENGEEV
Description: PDSP Primary Binding target: ADRA1A - Compounds are tested at 10 uM concentration, plate are incubated at room temperature in the dark for 90 minutes. Reaction are stopped by vacuum filtration onto 0.3% polyethyleneimine soaked filter mats using Filtermate harvester. Scintilation cocktail is then melted onto microwave-dried filters on a hot plate and the radio activity is counted in Microbia counter.

[2] = target: T2, Alpha-2C adrenergic receptor (Homo sapiens) (UniProt P18825)
T2 sequence (whole entry): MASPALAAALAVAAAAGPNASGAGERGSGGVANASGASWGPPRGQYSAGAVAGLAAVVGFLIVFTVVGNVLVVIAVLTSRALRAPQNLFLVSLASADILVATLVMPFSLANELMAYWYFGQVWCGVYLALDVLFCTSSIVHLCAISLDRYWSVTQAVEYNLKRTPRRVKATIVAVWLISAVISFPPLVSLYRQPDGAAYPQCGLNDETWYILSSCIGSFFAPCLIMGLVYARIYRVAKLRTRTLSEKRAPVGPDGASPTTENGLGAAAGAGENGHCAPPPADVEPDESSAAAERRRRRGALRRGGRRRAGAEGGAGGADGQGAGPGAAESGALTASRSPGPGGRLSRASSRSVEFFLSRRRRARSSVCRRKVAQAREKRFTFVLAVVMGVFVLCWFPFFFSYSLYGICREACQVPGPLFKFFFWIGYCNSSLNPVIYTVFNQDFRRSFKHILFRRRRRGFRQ
Description: PDSP Primary Binding target: ADRA2C - Compounds are tested at 10 uM concentration, plate are incubated at room temperature in the dark for 90 minutes. Reaction are stopped by vacuum filtration onto 0.3% polyethyleneimine soaked filter mats using Filtermate harvester. Scintilation cocktail is then melted onto microwave-dried filters on a hot plate and the radio activity is counted in Microbia counter.

[3] = target: T3, Muscarinic acetylcholine receptor M5 (Homo sapiens) (UniProt P08912)
T3 sequence (whole entry): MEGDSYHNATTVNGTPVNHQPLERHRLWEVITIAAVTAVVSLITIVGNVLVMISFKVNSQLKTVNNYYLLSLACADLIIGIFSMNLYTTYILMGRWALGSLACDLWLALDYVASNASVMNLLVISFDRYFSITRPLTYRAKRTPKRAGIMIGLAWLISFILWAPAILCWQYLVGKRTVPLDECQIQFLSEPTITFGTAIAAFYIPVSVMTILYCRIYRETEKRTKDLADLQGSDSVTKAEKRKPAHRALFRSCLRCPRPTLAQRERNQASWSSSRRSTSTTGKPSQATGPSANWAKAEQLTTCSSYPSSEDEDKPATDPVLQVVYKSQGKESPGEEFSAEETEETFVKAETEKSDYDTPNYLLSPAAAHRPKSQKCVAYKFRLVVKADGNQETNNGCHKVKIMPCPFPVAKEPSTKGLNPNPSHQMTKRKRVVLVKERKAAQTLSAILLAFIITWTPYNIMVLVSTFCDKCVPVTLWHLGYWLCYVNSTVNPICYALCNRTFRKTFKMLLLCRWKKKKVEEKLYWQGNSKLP
Description: PDSP Primary Binding target: CHRM5 - Compounds are tested at 10 uM concentration, plate are incubated at room temperature in the dark for 90 minutes. Reaction are stopped by vacuum filtration onto 0.3% polyethyleneimine soaked filter mats using Filtermate harvester. Scintilation cocktail is then melted onto microwave-dried filters on a hot plate and the radio activity is counted in Microbia counter.

[4] = target: D(3) dopamine receptor (Homo sapiens) (UniProt P35462)
Chain of D(3) dopamine receptor (Homo sapiens) (P35462 whole entry): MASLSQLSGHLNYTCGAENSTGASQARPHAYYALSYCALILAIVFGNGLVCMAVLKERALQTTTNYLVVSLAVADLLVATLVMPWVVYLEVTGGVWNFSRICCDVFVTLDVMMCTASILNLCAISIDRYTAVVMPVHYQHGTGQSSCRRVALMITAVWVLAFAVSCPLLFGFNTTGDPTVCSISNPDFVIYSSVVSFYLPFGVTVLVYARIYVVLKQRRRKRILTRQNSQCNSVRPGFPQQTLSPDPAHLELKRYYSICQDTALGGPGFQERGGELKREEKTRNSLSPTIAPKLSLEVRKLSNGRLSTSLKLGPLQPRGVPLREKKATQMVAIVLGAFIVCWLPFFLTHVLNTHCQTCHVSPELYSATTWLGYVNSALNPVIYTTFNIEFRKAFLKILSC
Description: PDSP Primary Binding target: DRD3 - Compounds are tested at 10 uM concentration, plate are incubated at room temperature in the dark for 90 minutes. Reaction are stopped by vacuum filtration onto 0.3% polyethyleneimine soaked filter mats using Filtermate harvester. Scintilation cocktail is then melted onto microwave-dried filters on a hot plate and the radio activity is counted in Microbia counter.

[5] = target: Kappa-type opioid receptor (Homo sapiens) (UniProt P41145)
Chain of Kappa-type opioid receptor (Homo sapiens) (P41145 whole entry): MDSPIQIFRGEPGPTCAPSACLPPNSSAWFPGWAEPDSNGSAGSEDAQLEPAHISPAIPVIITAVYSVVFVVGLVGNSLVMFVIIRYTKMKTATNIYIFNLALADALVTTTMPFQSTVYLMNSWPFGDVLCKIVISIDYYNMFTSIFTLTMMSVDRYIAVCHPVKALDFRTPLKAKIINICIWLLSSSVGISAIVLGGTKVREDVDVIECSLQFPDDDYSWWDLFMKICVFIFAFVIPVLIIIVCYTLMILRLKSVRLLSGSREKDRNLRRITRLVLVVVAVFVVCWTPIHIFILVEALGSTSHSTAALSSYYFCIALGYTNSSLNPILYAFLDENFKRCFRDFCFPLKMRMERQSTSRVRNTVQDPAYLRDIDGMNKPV
Description: PDSP Primary Binding target: OPRK1 - Compounds are tested at 10 uM concentration, plate are incubated at room temperature in the dark for 90 minutes. Reaction are stopped by vacuum filtration onto 0.3% polyethyleneimine soaked filter mats using Filtermate harvester. Scintilation cocktail is then melted onto microwave-dried filters on a hot plate and the radio activity is counted in Microbia counter.

[6] = target: T4, Muscarinic acetylcholine receptor M2 (Homo sapiens) (UniProt P08172)
T4 sequence (whole entry): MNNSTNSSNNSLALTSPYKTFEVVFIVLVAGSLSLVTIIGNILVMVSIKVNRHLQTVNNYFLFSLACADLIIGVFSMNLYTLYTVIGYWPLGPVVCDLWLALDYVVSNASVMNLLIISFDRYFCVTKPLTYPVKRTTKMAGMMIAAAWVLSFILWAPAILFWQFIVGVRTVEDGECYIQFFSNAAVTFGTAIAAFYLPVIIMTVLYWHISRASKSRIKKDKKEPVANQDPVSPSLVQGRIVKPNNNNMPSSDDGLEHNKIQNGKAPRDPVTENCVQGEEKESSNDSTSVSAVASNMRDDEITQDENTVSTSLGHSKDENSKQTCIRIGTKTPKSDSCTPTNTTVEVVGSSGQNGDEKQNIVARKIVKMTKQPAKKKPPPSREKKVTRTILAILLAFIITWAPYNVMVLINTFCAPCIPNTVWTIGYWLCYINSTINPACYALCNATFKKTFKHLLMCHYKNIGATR
Description: PDSP Primary Binding target: CHRM2 - Compounds are tested at 10 uM concentration, plate are incubated at room temperature in the dark for 90 minutes. Reaction are stopped by vacuum filtration onto 0.3% polyethyleneimine soaked filter mats using Filtermate harvester. Scintilation cocktail is then melted onto microwave-dried filters on a hot plate and the radio activity is counted in Microbia counter.

[7] = target: Beta-1 adrenergic receptor (Homo sapiens) (UniProt P08588)
Chain of Beta-1 adrenergic receptor (Homo sapiens) (P08588 whole entry, looked up): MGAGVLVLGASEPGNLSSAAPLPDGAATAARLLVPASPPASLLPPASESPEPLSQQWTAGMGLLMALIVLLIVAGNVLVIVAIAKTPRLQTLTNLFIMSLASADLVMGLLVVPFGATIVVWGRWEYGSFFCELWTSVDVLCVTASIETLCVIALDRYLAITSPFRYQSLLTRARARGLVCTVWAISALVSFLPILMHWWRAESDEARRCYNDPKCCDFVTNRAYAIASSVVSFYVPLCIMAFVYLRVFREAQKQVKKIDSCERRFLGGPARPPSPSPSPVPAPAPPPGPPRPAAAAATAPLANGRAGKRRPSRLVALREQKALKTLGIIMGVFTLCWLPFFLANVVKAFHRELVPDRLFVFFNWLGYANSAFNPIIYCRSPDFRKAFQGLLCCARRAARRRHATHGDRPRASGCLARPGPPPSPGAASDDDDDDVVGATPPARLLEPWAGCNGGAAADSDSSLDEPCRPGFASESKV
Description: PDSP Primary Binding target: ADRB1 - Compounds are tested at 10 uM concentration, plate are incubated at room temperature in the dark for 90 minutes. Reaction are stopped by vacuum filtration onto 0.3% polyethyleneimine soaked filter mats using Filtermate harvester. Scintilation cocktail is then melted onto microwave-dried filters on a hot plate and the radio activity is counted in Microbia counter.

[8] = target: T5, 5-hydroxytryptamine receptor 1A (Homo sapiens) (UniProt P08908)
T5 sequence (whole entry): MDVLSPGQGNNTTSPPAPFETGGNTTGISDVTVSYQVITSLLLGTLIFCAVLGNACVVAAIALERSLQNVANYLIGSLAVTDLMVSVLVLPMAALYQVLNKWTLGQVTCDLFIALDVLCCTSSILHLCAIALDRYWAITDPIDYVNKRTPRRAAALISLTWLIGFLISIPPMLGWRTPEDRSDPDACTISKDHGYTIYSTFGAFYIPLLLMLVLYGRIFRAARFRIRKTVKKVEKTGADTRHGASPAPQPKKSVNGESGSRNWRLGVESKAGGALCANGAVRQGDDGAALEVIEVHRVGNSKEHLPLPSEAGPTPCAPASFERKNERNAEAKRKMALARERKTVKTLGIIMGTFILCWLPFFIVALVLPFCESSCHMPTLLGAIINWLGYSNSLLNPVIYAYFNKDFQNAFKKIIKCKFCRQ
Description: PDSP Primary Binding target: HTR1A - Compounds are tested at 10 uM concentration, plate are incubated at room temperature in the dark for 90 minutes. Reaction are stopped by vacuum filtration onto 0.3% polyethyleneimine soaked filter mats using Filtermate harvester. Scintilation cocktail is then melted onto microwave-dried filters on a hot plate and the radio activity is counted in Microbia counter.

[9] = target: 5-hydroxytryptamine receptor 2B (Homo sapiens) (UniProt P41595)
Chain of 5-hydroxytryptamine receptor 2B (Homo sapiens) (P41595 whole entry): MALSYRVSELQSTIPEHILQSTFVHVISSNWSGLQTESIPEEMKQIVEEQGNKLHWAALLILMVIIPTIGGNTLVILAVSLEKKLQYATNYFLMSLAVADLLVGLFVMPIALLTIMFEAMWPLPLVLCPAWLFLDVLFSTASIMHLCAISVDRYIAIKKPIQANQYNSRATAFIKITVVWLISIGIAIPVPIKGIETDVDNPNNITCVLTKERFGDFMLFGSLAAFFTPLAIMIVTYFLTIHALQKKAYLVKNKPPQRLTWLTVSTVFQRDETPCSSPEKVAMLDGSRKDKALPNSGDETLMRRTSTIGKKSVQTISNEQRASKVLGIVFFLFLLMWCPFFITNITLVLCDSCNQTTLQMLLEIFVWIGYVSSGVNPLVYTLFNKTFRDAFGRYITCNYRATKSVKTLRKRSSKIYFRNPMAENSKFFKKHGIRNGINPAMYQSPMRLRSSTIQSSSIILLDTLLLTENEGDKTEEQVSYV
Description: PDSP Primary Binding target: HTR2B - Compounds are tested at 10 uM concentration, plate are incubated at room temperature in the dark for 90 minutes. Reaction are stopped by vacuum filtration onto 0.3% polyethyleneimine soaked filter mats using Filtermate harvester. Scintilation cocktail is then melted onto microwave-dried filters on a hot plate and the radio activity is counted in Microbia counter.

[10] = target: 5-hydroxytryptamine receptor 1B (Homo sapiens) (UniProt P28222)
Chain of 5-hydroxytryptamine receptor 1B (Homo sapiens) (P28222 whole entry): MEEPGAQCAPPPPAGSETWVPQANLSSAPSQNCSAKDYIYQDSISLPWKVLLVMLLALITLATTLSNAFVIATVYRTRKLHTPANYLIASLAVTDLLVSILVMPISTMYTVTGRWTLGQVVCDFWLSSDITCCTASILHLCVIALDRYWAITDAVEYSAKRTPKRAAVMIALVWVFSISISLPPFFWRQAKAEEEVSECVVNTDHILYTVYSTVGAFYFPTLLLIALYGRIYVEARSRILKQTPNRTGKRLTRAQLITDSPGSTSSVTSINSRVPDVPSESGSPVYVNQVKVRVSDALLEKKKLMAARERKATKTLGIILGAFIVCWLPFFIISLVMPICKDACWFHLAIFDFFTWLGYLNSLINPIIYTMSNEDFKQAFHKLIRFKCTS
Description: PDSP Primary Binding target: HTR1B - Compounds are tested at 10 uM concentration, plate are incubated at room temperature in the dark for 90 minutes. Reaction are stopped by vacuum filtration onto 0.3% polyethyleneimine soaked filter mats using Filtermate harvester. Scintilation cocktail is then melted onto microwave-dried filters on a hot plate and the radio activity is counted in Microbia counter.

SMILES	inhibition [1]	inhibition [2]	inhibition [3]	inhibition [4]	inhibition [5]	inhibition [6]	inhibition [7]	inhibition [8]	inhibition [9]	inhibition [10]
COc1ccc(S(=O)(=O)N2c3ccc(Cl)cc3[C@](O)(c3ccccc3Cl)[C@@H]2C(=O)N2CCC[C@H]2C(N)=O)cc1OC	-4.04%	-3.82%	7.17%	40.4%	16.3%	29.5%	28.5%	8.75%	0.08%	
CCCCc1nc(Cl)c(CO)n1Cc1ccc(-c2ccccc2-c2nnn[nH]2)cc1	-0.59%	3.84%	0.95%	46.3%		-0.57%	8.7%	19.9%	37.1%	-3.17%
CCCCCNC(=O)NS(=O)(=O)c1cc([N+](=O)[O-])ccc1NC1CCCCC1	-4%	-0.86%		52.2%	14.7%	-9.24%	18.5%	1.18%	-9.68%	0.02%
O=C(Cc1ccc(Cl)c(Cl)c1)N1CCCC[C@H]1CN1CCCC1	31.2%	24.5%		18.5%	99.7%	12%	-3.57%	-1.23%	35.7%	10.4%
COc1cccc([C@H](O)C2CCN(CCc3ccc(F)cc3)CC2)c1OC	31.6%	26.7%	-8.31%	9.18%		1.5%	32.2%	3.32%	89.1%	27.7%
CC[C@@H]1CN2C(=O)N(C)c3nc(-c4ccccc4)[nH]c3C2=N1	4.28%	-1.57%		27.9%	6.33%	-8.11%	21.2%	12%	-1.79%	6.19%
COc1ccc(Br)cc1S(=O)(=O)NC(=O)/C=C/c1ccccc1Cc1ccc2ccccc2c1	17.8%	18.6%	16.9%	64.7%	1.49%	40.7%		9.76%	-4.73%	3.55%
Cc1cc(C(=O)N2Cc3cnn(C)c3Nc3ccccc32)ccc1CNC(=O)N1CCC[C@H]1C(=S)N1CCCN(C)CC1	-5.86%	-5.77%	83.3%	87.3%	61.7%	68.4%		-3.18%	18.3%	20.7%
COc1cc(-n2cnc3cc(-c4ccc(Cl)cc4)sc3c2=O)ccc1OCCN1CCCC1	37.3%	71.9%	64.9%	68.5%	33.2%	71.5%		8.71%	82.7%	42.5%
CC(C)(N)C(=O)N[C@H](COCc1ccccc1)C(=O)N1CCC2(CC1)CN(S(C)(=O)=O)c1ccccc12	3.39%	3.03%	5.22%	25.7%	17.4%	1.1%	30.4%	-5.57%	3.09%	
CC(C)NCC(O)COc1ccc(CCOCC2CC2)cc1 (stereo not given)	-7.39%	2.92%	0.46%	5.81%	20.5%	-4.15%		-1.07%	32.1%	10.4%
CCN(CC)CCCCC1CCN(CC(=O)N2c3ccccc3C(=O)Nc3cccnc32)CC1	-8.07%	-6.76%	72.4%	13.8%		81.4%	4.03%	0.4%	13.9%	14.9%
Cc1c(OCc2cccc(-c3ccc(C(=O)O)cc3)c2)cc2c(c1C)C(=O)C(C1CCCC1)C2 (stereo not given)	48.4%			33.5%	-0.11%	32.3%	-9.82%	-4.54%		4.33%
C[C@H](Cc1cc2c(c(C(N)=O)c1)N(CCCO)CC2)NCCOc1ccccc1OCC(F)(F)F	90.7%	82.5%		94.1%	4.22%	-1.87%	31.1%	100%	71.7%	92.3%
C[C@@H](N)Cc1c[nH]cn1	8.76%	10.9%	-5.67%	8.41%	-2.45%	-5.01%		-9.3%	35.1%	5.1%
C[C@@H](NCCCc1cccc(C(F)(F)F)c1)c1cccc2ccccc12	38.5%	77.9%	7.94%	94.4%	79.3%	42%		87.7%	96.3%	27.5%
Cc1nc(-c2ccc(-c3ccc(C(=O)N4CCc5cc6c(cc54)C4(CCN(C)CC4)CO6)cc3)c(C)c2)no1	27.9%	38%	93.6%	18.8%		44.5%	-1.95%	9.17%	88.9%	95.1%
COc1ccc(OC(F)(F)F)cc1CN[C@H]1CCCN[C@H]1c1ccccc1	31.1%	9.77%		36.3%	21.1%	12.9%	1.65%	56.2%	87.7%	10%
